For one assay, the species on record is Cavia porcellus. Put plainly: Compound is evaluated for the inhibition of guinea pig ileum contraction caused by 25 ng/mL angiotensin I. Type of assay: functional, organism-based.
Assay [1] can be described thus: Enzyme kinetic inhibition constant against tripeptide, Hip-His-Leu as substrate.
Assay [2] can be described thus: Enzyme kinetic inhibition constant against tripeptide, Angiotensin I as substrate in a competition inhibition assay.

Two compounds from ChEMBL document CHEMBL1121370, “Synthesis and biological activity of a ketomethylene analogue of a tripeptide inhibitor of angiotensin converting enzyme” (J Med Chem, 1980) can be followed below.

As a reminder, the IC50 is the concentration that gives 50% inhibition. As a reminder, the Ki is the equilibrium dissociation constant of an inhibitor or competing ligand from its target. A high value points to a looser hold on the target.

Consider `C[C@H](CS)C(=O)N1CCC[C@H]1C(=O)O` [CAPTOPRIL], for which the IC50 in the assay filed under Cavia porcellus worked out at 0.05 µg/mL. The Ki in assay [1] is 71.5 nM.

Turning to `O=C(N[C@@H](Cc1ccccc1)C(=O)CCC(=O)N1CCC[C@H]1C(=O)O)c1ccccc1`, the IC50 in the assay filed under Cavia porcellus worked out at 0.5 µg/mL. The results for the Ki in assay [2] and in assay [1] were 870 nM and 106 nM, respectively.
